Data taken from US20250268884A1, “Deuterated Domperidone for Treating Gastroparesis” (CinDome Pharma, Inc., priority 2022, published 2025).

Tested on: adults with idiopathic or diabetic gastroparesis
Test: Safety: adverse events, laboratory values, vital signs, Phase 2a
Details: for Any Aes, % of subjects / Any Aes, n subjects / Any TEAEs by maximum severity: Mild, % of subjects / Any TEAEs by maximum severity: Mild, n subjects / Any TEAEs by maximum severity: Moderate, % of subjects / Any TEAEs by maximum severity: Moderate, n subjects / Any TEAEs by maximum severity: Severe, % of subjects / Any TEAEs by maximum severity: Severe, n subjects / Any TEAEs leading to death, % of subjects / Any TEAEs leading to death, n subjects / Any TEAEs leading to discontinuation, % of subjects / Any TEAEs leading to discontinuation, n subjects / Any TEAEs, % of subjects / Any TEAEs, e (number of events) / Any TEAEs, n subjects / Any serious TEAEs, % of subjects / Any serious TEAEs, n subjects / Any study drug-related TEAEs by maximum severity: Mild, % of subjects / Any study drug-related TEAEs by maximum severity: Mild, n subjects / Any study drug-related TEAEs by maximum severity: Moderate, % of subjects / Any study drug-related TEAEs by maximum severity: Moderate, n subjects / Any study drug-related TEAEs by maximum severity: Severe, % of subjects / Any study drug-related TEAEs by maximum severity: Severe, n subjects / Any study drug-related TEAEs leading to discontinuation, % of subjects / Any study drug-related TEAEs leading to discontinuation, n subjects / Any study drug-related TEAEs, % of subjects / Any study drug-related TEAEs, n subjects / Any study drug-related serious TEAEs, % of subjects / Any study drug-related serious TEAEs, n subjects / subjects who experienced a TEAE: Safety Population
Experimental: Safety was evaluated through assessments of Aes, vital signs, physical examinations, clinical laboratory evaluations (including prolactin), and ECG findings. Additionally, a single, optional PGx blood sample may have been collected at any time during the subject's participation in the study.
Safety variables included Aes, clinical laboratory results (including prolactin), vital signs, ECGs, and physical examination findings.

[2H]c1c([2H])c([2H])c2c([nH]c(=O)n2CCCN2CCC(n3c(=O)[nH]c4cc(Cl)ccc43)CC2)c1[2H] [Deudomperidone, 1-{3-[4-(5-chloro-2-oxo-2,3-dihydro-1H-1,3-benzodiazol-1-yl)piperidin-1yl]propyl}-2,3-dihydro(4,5,6,7-D4)-1H-1,3-benzodiazol-2-one]
TEAE Nausea, % (10 mg BID (N = 30)): (3.3) %
TEAE Nervous system disorders, % (10 mg BID (N = 30)): (0.0) %
TEAE Palpitations, % (10 mg BID (N = 30)): (3.3) %
TEAE Sinusitis, % (10 mg BID (N = 30)): (0.0) %
TEAE Tinnitus, % (10 mg BID (N = 30)): (3.3) %
TEAE Vomiting, % (10 mg BID (N = 30)): (3.3) %
Any Aes, % of subjects (10 mg BID (N = 30)): (23.3) %
Any Aes, n subjects (10 mg BID (N = 30)): 7
Any TEAEs by maximum severity: Mild, % of subjects (10 mg BID (N = 30)): (10.0) %
Any TEAEs by maximum severity: Mild, n subjects (10 mg BID (N = 30)): 3
Any TEAEs by maximum severity: Moderate, % of subjects (10 mg BID (N = 30)): (6.7) %
Any TEAEs by maximum severity: Moderate, n subjects (10 mg BID (N = 30)): 2
Any TEAEs by maximum severity: Severe, % of subjects (10 mg BID (N = 30)): (3.3) %
Any TEAEs by maximum severity: Severe, n subjects (10 mg BID (N = 30)): 1
Any TEAEs leading to death, % of subjects (10 mg BID (N = 30)): (0.0) %
Any TEAEs leading to death, n subjects (10 mg BID (N = 30)): 0
Any TEAEs leading to discontinuation, % of subjects (10 mg BID (N = 30)): (0.0) %
Any TEAEs leading to discontinuation, n subjects (10 mg BID (N = 30)): 0
Any TEAEs, % of subjects (10 mg BID (N = 30)): 20.0%
Any TEAEs, e (number of events) (10 mg BID (N = 30)): 11
Any TEAEs, n subjects (10 mg BID (N = 30)): 6
Any serious TEAEs, % of subjects (10 mg BID (N = 30)): (0.0) %
Any serious TEAEs, n subjects (10 mg BID (N = 30)): 0
Any study drug-related TEAEs by maximum severity: Mild, % of subjects (10 mg BID (N = 30)): (13.3) %
Any study drug-related TEAEs by maximum severity: Mild, n subjects (10 mg BID (N = 30)): 4
Any study drug-related TEAEs by maximum severity: Moderate, % of subjects (10 mg BID (N = 30)): (0.0) %
Any study drug-related TEAEs by maximum severity: Moderate, n subjects (10 mg BID (N = 30)): 0
Any study drug-related TEAEs by maximum severity: Severe, % of subjects (10 mg BID (N = 30)): (0.0) %
Any study drug-related TEAEs by maximum severity: Severe, n subjects (10 mg BID (N = 30)): 0
Any study drug-related TEAEs leading to discontinuation, % of subjects (10 mg BID (N = 30)): (0.0) %
Any study drug-related TEAEs leading to discontinuation, n subjects (10 mg BID (N = 30)): 0
Any study drug-related TEAEs, % of subjects (10 mg BID (N = 30)): (13.3) %
Any study drug-related TEAEs, n subjects (10 mg BID (N = 30)): 4
Any study drug-related serious TEAEs, % of subjects (10 mg BID (N = 30)): (0.0) %
Any study drug-related serious TEAEs, n subjects (10 mg BID (N = 30)): 0
subjects who experienced a TEAE (10 mg BID): 6 (20.0%) subjects (%)
TEAE diarrhoea (20 mg QD): 1 (6.7%) subjects (%)
TEAE electrocardiogram QT prolonged (20 mg QD): 2 (13.3%) subjects (%)
TEAE hypoglycaemia (20 mg QD): 1 (6.7%) subjects (%)
TEAEs reported (20 mg QD): 8 TEAEs
other TEAEs, each: constipation, dyspepsia, sinusitis, headache (20 mg QD): 1 subject each
other study drug-related TEAE: headache (20 mg QD): 1 subject each
study drug-related TEAE diarrhoea (20 mg QD): 1 (6.7%) subjects (%)
study drug-related TEAE electrocardiogram QT prolonged (20 mg QD): 2 (13.3%) subjects (%)
study drug-related TEAEs reported (20 mg QD): 4 TEAEs
subjects with study drug-related TEAEs (20 mg QD): 4 (26.7) subjects (%)
Study drug-related TEAE Abdominal pain lower, % (20 mg QD (N = 15)): (0.0) %
Study drug-related TEAE Blood creatine phosphokinase increased, % (20 mg QD (N = 15)): (0.0) %
Study drug-related TEAE Cardiac disorders, % (20 mg QD (N = 15)): (0.0) %
Study drug-related TEAE Diarrhoea, % (20 mg QD (N = 15)): (6.7) %
Study drug-related TEAE Ear and labyrinth disorders, % (20 mg QD (N = 15)): (0.0) %
Study drug-related TEAE Electrocardiogram QT prolonged, % (20 mg QD (N = 15)): (13.3) %
Study drug-related TEAE Gastrointestinal disorders, % (20 mg QD (N = 15)): (6.7) %
Study drug-related TEAE Headache, % (20 mg QD (N = 15)): (6.7) %
Study drug-related TEAE Investigations, % (20 mg QD (N = 15)): (13.3) %
Study drug-related TEAE Nausea, % (20 mg QD (N = 15)): (0.0) %
Study drug-related TEAE Nervous system disorders, % (20 mg QD (N = 15)): (6.7) %
Study drug-related TEAE Palpitations, % (20 mg QD (N = 15)): (0.0) %
Study drug-related TEAE Tinnitus, % (20 mg QD (N = 15)): (0.0) %
Subjects with any TEAEs, % (20 mg QD (N = 15)): 40.0%
Subjects with any TEAEs, e (events) (20 mg QD (N = 15)): 8
Subjects with any study drug-related TEAE, % (20 mg QD (N = 15)): 26.7%
Subjects with any study drug-related TEAE, e (events) (20 mg QD (N = 15)): 4
TEAE Abdominal pain lower, % (20 mg QD (N = 15)): (0.0) %
TEAE Arthralgia, % (20 mg QD (N = 15)): (0.0) %
TEAE Back pain, % (20 mg QD (N = 15)): (0.0) %
TEAE Blood creatine phosphokinase increased, % (20 mg QD (N = 15)): (0.0) %
TEAE Cardiac disorders, % (20 mg QD (N = 15)): (0.0) %
TEAE Constipation, % (20 mg QD (N = 15)): (6.7) %
TEAE Decreased appetite, % (20 mg QD (N = 15)): (0.0) %
TEAE Diarrhoea, % (20 mg QD (N = 15)): (6.7) %
TEAE Dyspepsia, % (20 mg QD (N = 15)): (6.7) %
TEAE Ear and labyrinth disorders, % (20 mg QD (N = 15)): (0.0) %
TEAE Electrocardiogram QT prolonged, % (20 mg QD (N = 15)): (13.3) %
TEAE Gastrointestinal disorders, % (20 mg QD (N = 15)): (13.3) %
TEAE Headache, % (20 mg QD (N = 15)): (6.7) %
TEAE Hypoglycaemia, % (20 mg QD (N = 15)): (6.7) %
TEAE Infections and infestations, % (20 mg QD (N = 15)): (6.7) %
TEAE Investigations, % (20 mg QD (N = 15)): (13.3) %
TEAE Metabolism and nutrition disorders, % (20 mg QD (N = 15)): (6.7) %
TEAE Musculoskeletal and connective tissue disorders, % (20 mg QD (N = 15)): (0.0) %
TEAE Nausea, % (20 mg QD (N = 15)): (0.0) %
TEAE Nervous system disorders, % (20 mg QD (N = 15)): (6.7) %
TEAE Palpitations, % (20 mg QD (N = 15)): (0.0) %
TEAE Sinusitis, % (20 mg QD (N = 15)): (6.7) %
TEAE Tinnitus, % (20 mg QD (N = 15)): (0.0) %
TEAE Vomiting, % (20 mg QD (N = 15)): (0.0) %
Any Aes, % of subjects (20 mg QD (N = 15)): (40.0) %
Any Aes, n subjects (20 mg QD (N = 15)): 6
Any TEAEs by maximum severity: Mild, % of subjects (20 mg QD (N = 15)): (40.0) %
Any TEAEs by maximum severity: Mild, n subjects (20 mg QD (N = 15)): 6
Any TEAEs by maximum severity: Moderate, % of subjects (20 mg QD (N = 15)): (0.0) %
Any TEAEs by maximum severity: Moderate, n subjects (20 mg QD (N = 15)): 0
Any TEAEs by maximum severity: Severe, % of subjects (20 mg QD (N = 15)): (0.0) %
Any TEAEs by maximum severity: Severe, n subjects (20 mg QD (N = 15)): 0
Any TEAEs leading to death, % of subjects (20 mg QD (N = 15)): (0.0) %
Any TEAEs leading to death, n subjects (20 mg QD (N = 15)): 0
Any TEAEs leading to discontinuation, % of subjects (20 mg QD (N = 15)): (0.0) %
Any TEAEs leading to discontinuation, n subjects (20 mg QD (N = 15)): 0
Any TEAEs, % of subjects (20 mg QD (N = 15)): 40.0%
Any TEAEs, e (number of events) (20 mg QD (N = 15)): 8
Any TEAEs, n subjects (20 mg QD (N = 15)): 6
Any serious TEAEs, % of subjects (20 mg QD (N = 15)): (0.0) %
Any serious TEAEs, n subjects (20 mg QD (N = 15)): 0
Any study drug-related TEAEs by maximum severity: Mild, % of subjects (20 mg QD (N = 15)): (26.7) %
Any study drug-related TEAEs by maximum severity: Mild, n subjects (20 mg QD (N = 15)): 4
Any study drug-related TEAEs by maximum severity: Moderate, % of subjects (20 mg QD (N = 15)): (0.0) %
Any study drug-related TEAEs by maximum severity: Moderate, n subjects (20 mg QD (N = 15)): 0
Any study drug-related TEAEs by maximum severity: Severe, % of subjects (20 mg QD (N = 15)): (0.0) %
Any study drug-related TEAEs by maximum severity: Severe, n subjects (20 mg QD (N = 15)): 0
Any study drug-related TEAEs leading to discontinuation, % of subjects (20 mg QD (N = 15)): (0.0) %
Any study drug-related TEAEs leading to discontinuation, n subjects (20 mg QD (N = 15)): 0
Any study drug-related TEAEs, % of subjects (20 mg QD (N = 15)): (26.7) %
Any study drug-related TEAEs, n subjects (20 mg QD (N = 15)): 4
Any study drug-related serious TEAEs, % of subjects (20 mg QD (N = 15)): (0.0) %
Any study drug-related serious TEAEs, n subjects (20 mg QD (N = 15)): 0
subjects who experienced a TEAE (20 mg QD): 6 (40.0%) subjects (%)
severity of study drug-related TEAEs (all dose groups): mild in severity
deaths, serious TEAEs, discontinuations due to a TEAE (all dose groups, 14 days): no deaths, serious TEAEs, or discontinuations due to a TEAE
changes from baseline in laboratory parameters (over treatment period): no meaningful changes from baseline
